Experiments:
STEME [1] = experiment: Post-emergence herbicidal action against STEME; assay type: in vivo, Stellaria media
How it was run: (§1)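 Herbicidal effect was scored visually in percent after about 3 weeks in the greenhouse. Plants had been raised in sandy loam and treated post-emergence at the one-leaf stage with formulated compound at 600 to 800 l/ha water plus 0.2% wetting agent.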

HORMU [2] = experiment: Post-emergence herbicidal action against HORMU; assay type: in vivo, Hordeum murinum; details: dosage 20 g/ha
Experimental: Seeds of monocotyledonous and dicotyledonous weed and crop plants are laid out in sandy loam soil in wood-fiber pots, covered with soil and cultivated in a greenhouse under good growth conditions. 2 to 3 weeks after sowing, the test plants are treated at the one-leaf stage. The compounds of the invention, formulated in the form of wettable powders (WP) or as emulsion concentrates (EC), are then sprayed onto the green parts of the plants in the form of an aqueous suspension or emulsion at a water application rate equivalent to 600 to 800 l/ha, with addition of 0.2% wetting agent. After the test plants have been left to stand in the greenhouse under optimal growth conditions for about 3 weeks, the action of the preparations is assessed visually in comparison to untreated controls (herbicidal action in percent (%): 100% activity=the plants have died, 0% activity=like control plants). […] The tables below illustrate, in an illustrative manner, the post-emergence herbicidal action of the compounds of the invention, the herbicidal activity being stated in percent.

ECHCG [3] = experiment: Post-emergence herbicidal action against ECHCG; assay type: in vivo, Echinochloa crus-galli; details: dosage 20 g/ha
How it was run: as §1

HORMU [4] = experiment: Pre-emergence herbicidal action against HORMU; assay type: in vivo, Hordeum murinum; details: 80 g/ha, pre-emergence
How it was run: (§2)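 Herbicidal effect was assessed 3 weeks after treatment by visual comparison with untreated controls, 100% denoting dead plants. Aqueous WP or EC preparations had been applied at 600 to 800 l/ha with 0.2% wetting agent to the soil covering freshly sown seeds.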

LOLRI = experiment: Pre-emergence herbicidal action against LOLRI; assay type: in vivo, Lolium rigidum; details: 80 g/ha
How it was run: as §2

ALOMY [5] = experiment: Post-emergence herbicidal action against ALOMY; assay type: in vivo, Alopecurus myosuroides; details: dosage 20 g/ha, visual assessment about 3 weeks after treatment vs untreated controls
How it was run: as §1

SETVI [6] = experiment: Pre-emergence herbicidal action against SETVI; assay type: in vivo, Setaria viridis
How it was run: as §2

PHBPU [7] = experiment: Post-emergence herbicidal action against PHBPU; assay type: in vivo, Pharbitis purpurea; details: dosage 20 g/ha
How it was run: as §1

MATIN [8] = experiment: Pre-emergence herbicidal action against MATIN; assay type: in vivo, Matricaria inodora
How it was run: as §2

ECHCG [9] = experiment: Pre-emergence herbicidal action against ECHCG; assay type: in vivo, Echinochloa crus-galli; details: 80 g/ha
How it was run: as §2

POLCO = experiment: Pre-emergence herbicidal action against POLCO; assay type: in vivo, Polygonum convolvulus; details: dosage 80 g/ha
How it was run: as §2

VIOTR [10] = experiment: Post-emergence herbicidal action against VIOTR; assay type: in vivo, Viola tricolor
How it was run: as §1

AVEFA [11] = experiment: Pre-emergence herbicidal action against AVEFA; assay type: in vivo, Avena fatua; details: 80 g/ha, pre-emergence
How it was run: as §2

STEME [12] = experiment: Pre-emergence herbicidal action against STEME; assay type: in vivo, Stellaria media
How it was run: as §2

VIOTR [13] = experiment: Pre-emergence herbicidal action against VIOTR; assay type: in vivo, Viola tricolor
How it was run: as §2

DIGSA [14] = experiment: Pre-emergence herbicidal action against DIGSA; assay type: in vivo, Digitaria sanguinalis
How it was run: as §2

ABUTH [15] = experiment: Post-emergence herbicidal action against ABUTH; assay type: in vivo, Abutilon theophrasti; details: visual assessment about 3 weeks after treatment vs untreated controls
How it was run: as §1

MATIN [16] = experiment: Post-emergence herbicidal action against MATIN; assay type: in vivo, Matricaria inodora
How it was run: as §1

VERPE [17] = experiment: Pre-emergence herbicidal action against VERPE; assay type: in vivo, Veronica persica; details: dosage 80 g/ha
How it was run: as §2

AMARE [18] = experiment: Pre-emergence herbicidal action against AMARE; assay type: in vivo, Amaranthus retroflexus
How it was run: as §2

VERPE [19] = experiment: Post-emergence herbicidal action against VERPE; assay type: in vivo, Veronica persica
How it was run: as §1

PHBPU [20] = experiment: Pre-emergence herbicidal action against PHBPU; assay type: in vivo, Pharbitis purpurea; details: dosage 80 g/ha
How it was run: as §2

AMARE [21] = experiment: Post-emergence herbicidal action against AMARE; assay type: in vivo, Amaranthus retroflexus; details: 20 g/ha, visual assessment about 3 weeks after treatment, 100% = plants have died, 0% = like control plants
How it was run: as §1

ABUTH [22] = experiment: Pre-emergence herbicidal action against ABUTH; assay type: in vivo, Abutilon theophrasti
How it was run: as §2

ALOMY [23] = experiment: Pre-emergence herbicidal action against ALOMY; assay type: in vivo, Alopecurus myosuroides; details: pre-emergence
How it was run: as §2

AVEFA [24] = experiment: Post-emergence herbicidal action against AVEFA; assay type: in vivo, Avena fatua; details: Avena fatua, 504 h, visual assessment about 3 weeks after treatment, 100% = plants have died, 0% = like control plants
How it was run: as §1

DIGSA [25] = experiment: Post-emergence herbicidal action against DIGSA; assay type: in vivo, Digitaria sanguinalis; details: Digitaria sanguinalis, 504 h
How it was run: as §1

SETVI [26] = experiment: Post-emergence herbicidal action against SETVI; assay type: in vivo, Setaria viridis; details: Setaria viridis, 504 h
How it was run: as §1

[27] = 80 g/ha, scored visually after 3 weeks vs untreated controls (100% = plants have died, 0% = like control plants)
[28] = Tripleurospermum inodorum, 504 h, dosage 20 g/ha

CCn1nnnc1NC(=O)c1ccc(C(F)F)c(C(=O)NC2CC2)c1C [Example 2-46]
Post-emergence action against STEME in % (STEME [1]; 20 g/ha): 80%
Post-emergence action against STEME in % (STEME [1]; dosage 5 g/ha): 80%
Post-emergence action against HORMU in % (HORMU [2]): 80%
Post-emergence action against ECHCG in % (ECHCG [3]): 80%
Pre-emergence action against HORMU in % (HORMU [4]): 90%
Pre-emergence action against LOLRI in % (LOLRI): 90%
Post-emergence action against ALOMY in % (ALOMY [5]): 80%
Pre-emergence action against SETVI in % (SETVI [6]; dosage 80 g/ha): 100%
Post-emergence action against PHBPU in % (PHBPU [7]): 80%
Pre-emergence action against MATIN in % (MATIN [8]; dosage 20 g/ha): 90%
Pre-emergence action against MATIN in % (MATIN [8]; dosage 80 g/ha): 100%
Pre-emergence action against ECHCG in % (ECHCG [9]): 90%
Pre-emergence action against POLCO in % (POLCO): 90%
Post-emergence action against VIOTR in % (VIOTR [10]; 5 g/ha): 80%
Post-emergence action against VIOTR in % (VIOTR [10]; 20 g/ha): 80%
Pre-emergence action against AVEFA in % (AVEFA [11]): 100%
Pre-emergence action against STEME in % (STEME [12]; dosage 20 g/ha): 90%
Pre-emergence action against STEME in % (STEME [12]; dosage 80 g/ha): 100%
Pre-emergence action against VIOTR in % (VIOTR [13]; dosage 20 g/ha): 100%
Pre-emergence action against VIOTR in % (VIOTR [13]; dosage 80 g/ha): 100%
Pre-emergence action against DIGSA in % (DIGSA [14]; dosage 20 g/ha): 100%
Pre-emergence action against DIGSA in % (DIGSA [14]; dosage 80 g/ha): 100%
Post-emergence action against ABUTH in % (ABUTH [15]; dosage 5 g/ha): 80%
Post-emergence action against ABUTH in % (ABUTH [15]; dosage 20 g/ha): 80%
Post-emergence action against MATIN in % (MATIN [16]; dosage 20 g/ha): 80%
Pre-emergence action against VERPE in % (VERPE [17]): 90%
Pre-emergence action against AMARE in % (AMARE [18]; 20 g/ha, scored visually after 3 weeks vs untreated controls, 100% = plants have died, 0% = like control plants): 100%
Pre-emergence action against AMARE in % (AMARE [18]; [27]): 100%
Post-emergence action against VERPE in % (VERPE [19]; 5 g/ha): 80%
Post-emergence action against VERPE in % (VERPE [19]; 20 g/ha): 80%
Pre-emergence action against PHBPU in % (PHBPU [20]): 90%
Post-emergence action at 20 g/ha against AMARE in % (AMARE [21]): 100%
Pre-emergence action against ABUTH (herbicidal activity) (ABUTH [22]; [27]): 100%
Pre-emergence action against ABUTH (herbicidal activity in percent) (ABUTH [22]; dosage 20 g/ha, scored visually after 3 weeks vs untreated controls, 100% = plants have died, 0% = like control plants): 100%
Pre-emergence action against ALOMY (herbicidal activity) (ALOMY [23]; [27]): 100%

CCn1nnnc1NC(=O)c1ccc(C(F)(F)F)c(C(=O)NC2CC2)c1Cl [Example 2-131]
pest or weed control at 20 g/ha (STEME [1]; Stellaria media, 504 h, 20 g/ha): 90%
pest or weed control at 5 g/ha (STEME [1]; Stellaria media, 504 h, dosage 5 g/ha): 90%
pest or weed control at 20 g/ha (HORMU [2]; Hordeum murinum, 504 h): 100%
pest or weed control at 20 g/ha (ECHCG [3]; Echinochloa crus-galli, 504 h): 80%
pest or weed control at 5 g/ha (AVEFA [24]; 5 g/ha): 80%
pest or weed control at 20 g/ha (AVEFA [24]; 20 g/ha): 80%
pest or weed control at 80 g/ha (HORMU [4]; Hordeum murinum, 504 h): 80%
pest or weed control at 20 g/ha (ALOMY [5]; Alopecurus myosuroides, 504 h): 80%
pest or weed control at 20 g/ha (SETVI [6]; Setaria viridis, 504 h, dosage 20 g/ha): 80%
pest or weed control at 80 g/ha (SETVI [6]; Setaria viridis, 504 h, dosage 80 g/ha): 100%
pest or weed control at 20 g/ha (PHBPU [7]; Ipomoea purpurea, 504 h): 80%
pest or weed control at 20 g/ha (MATIN [8]; [28]): 90%
pest or weed control at 80 g/ha (MATIN [8]; Tripleurospermum inodorum, 504 h, dosage 80 g/ha): 100%
pest or weed control at 80 g/ha (ECHCG [9]; Echinochloa crus-galli, 504 h): 100%
pest or weed control at 80 g/ha (POLCO; Fallopia convolvulus, 504 h): 90%
pest or weed control at 5 g/ha (VIOTR [10]; Viola tricolor, 504 h, 5 g/ha): 100%
pest or weed control at 20 g/ha (VIOTR [10]; Viola tricolor, 504 h, 20 g/ha): 100%
pest or weed control at 80 g/ha (AVEFA [11]; Avena fatua, 504 h): 100%
pest or weed control at 5 g/ha (DIGSA [25]; 5 g/ha): 90%
pest or weed control at 20 g/ha (DIGSA [25]; 20 g/ha): 90%
pest or weed control at 20 g/ha (STEME [12]; Stellaria media, 504 h, dosage 20 g/ha): 100%
pest or weed control at 80 g/ha (STEME [12]; Stellaria media, 504 h, dosage 80 g/ha): 100%
pest or weed control at 20 g/ha (VIOTR [13]; Viola tricolor, 504 h, dosage 20 g/ha): 100%
pest or weed control at 80 g/ha (VIOTR [13]; Viola tricolor, 504 h, dosage 80 g/ha): 100%
pest or weed control at 20 g/ha (DIGSA [14]; Digitaria sanguinalis, 504 h, dosage 20 g/ha): 90%
pest or weed control at 80 g/ha (DIGSA [14]; Digitaria sanguinalis, 504 h, dosage 80 g/ha): 100%
pest or weed control at 20 g/ha (ABUTH [15]; Abutilon theophrasti, 504 h, dosage 20 g/ha): 90%
pest or weed control at 5 g/ha (MATIN [16]; Tripleurospermum inodorum, 504 h, dosage 5 g/ha): 90%
pest or weed control at 20 g/ha (MATIN [16]; [28]): 100%
pest or weed control at 20 g/ha (AMARE [18]; Amaranthus retroflexus, 504 h, 20 g/ha, scored visually after 3 weeks vs untreated controls, 100% = plants have died, 0% = like control plants): 100%
pest or weed control at 80 g/ha (AMARE [18]; Amaranthus retroflexus, 504 h, 80 g/ha, scored visually after 3 weeks vs untreated controls, 100% = plants have died, 0% = like control plants): 100%
pest or weed control at 80 g/ha (PHBPU [20]; Ipomoea purpurea, 504 h): 80%
pest or weed control at 5 g/ha (SETVI [26]; dosage 5 g/ha): 90%
pest or weed control at 20 g/ha (SETVI [26]; dosage 20 g/ha): 100%
pest or weed control at 20 g/ha (AMARE [21]; Amaranthus retroflexus, 504 h): 100%
pest or weed control at 80 g/ha (ABUTH [22]; Abutilon theophrasti, 504 h, 80 g/ha, scored visually after 3 weeks vs untreated controls (100% = plants have died, 0% = like control plants)): 100%
pest or weed control at 20 g/ha (ABUTH [22]; Abutilon theophrasti, 504 h, dosage 20 g/ha, scored visually after 3 weeks vs untreated controls, 100% = plants have died, 0% = like control plants, read-out: Pre-emergence action against ABUTH (herbicidal activity in percent)): 100%
pest or weed control at 80 g/ha (ALOMY [23]; Alopecurus myosuroides, 504 h, 80 g/ha, scored visually after 3 weeks vs untreated controls (100% = plants have died, 0% = like control plants)): 100%
pest or weed control at 20 g/ha (ALOMY [23]; Alopecurus myosuroides, 504 h, 20 g/ha, scored visually after 3 weeks, 100% = plants have died, 0% = like control plants): 90%

From patent US12655116B2, “Substituted isophthalic acid diamides” (Bayer Aktiengesellschaft, priority 2020, dated 2026)
